Experiments:
corn = assay: Test A pre-/postemergence herbicide test; format: in vivo, Zea mays
Procedure, shortened: (§1)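 Seeds sown in loam soil/sand blend received a preemergence directed soil spray of test chemical in non-phytotoxic solvent with surfactant; postemergence plants (2–10 cm, one- to two-leaf stage) were sprayed with the same formulation. After about 10 days in greenhouse, injury was rated visually versus untreated controls, 0 (no effect) to 100 (complete control).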

sedge, umbrella = assay: Test B flooded paddy test; format: in vivo, Cyperus difformis; settings: Flood, scale of 0 to 100 where 0 is no effect and 100 is complete control
Procedure, shortened: (§2)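 2-leaf plants; flood 3 cm over soil; compound into paddy water; depth held. Greenhouse 13–15 d. Visual rating vs controls, 0 (no effect) to 100 (complete control); dash = not tested.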

rice = assay: Test B flooded paddy test; format: in vivo, Oryza sativa; settings: Flood, scale of 0 to 100 where 0 is no effect and 100 is complete control
Procedure, shortened: as §2

morningglory = assay: Test A pre-/postemergence herbicide test; format: in vivo, Ipomoea spp.
Procedure, shortened: as §1

pigweed = assay: Test A pre-/postemergence herbicide test; format: in vivo, Amaranthus retroflexus
Procedure, shortened: as §1

giant foxtail = assay: Test A pre-/postemergence herbicide test; format: in vivo, Setaria faberii
Procedure, shortened: as §1

velvetleaf = assay: Test A pre-/postemergence herbicide test; format: in vivo, Abutilon theophrasti
Procedure, shortened: as §1

wheat = assay: Test A pre-/postemergence herbicide test; format: in vivo, Triticum aestivum
Procedure, shortened: as §1

barnyardgrass [1] = assay: Test B flooded paddy test; format: in vivo, Echinochloa crus-galli; settings: Flood, scale of 0 to 100 where 0 is no effect and 100 is complete control
Procedure, shortened: as §2

barnyardgrass [2] = assay: Test A pre-/postemergence herbicide test; format: in vivo, Echinochloa crus-galli
Procedure, shortened: as §1

crabgrass, large = assay: Test A pre-/postemergence herbicide test; format: in vivo, Digitaria sanguinalis
Procedure, shortened: as §1

ducksalad = assay: Test B flooded paddy test; format: in vivo, Heteranthera limosa; settings: Flood, scale of 0 to 100 where 0 is no effect and 100 is complete control
Procedure, shortened: as §2

[3] = Postemergence, 125 g ai/ha, 0 to 100 scale, 0 is no effect, 100 is complete control
[4] = Postemergence, 500 g ai/ha, 0 to 100 scale (0 no effect, 100 complete control)
[5] = Preemergence, 125 g ai/ha, 0 to 100 scale where 0 is no effect and 100 is complete control
[6] = preemergence, 500 g ai/ha, 0 to 100 scale, 0 is no effect and 100 is complete control
[7] = Postemergence, 1000 g ai/ha, 0 to 100 scale (0 no effect, 100 complete control)
[8] = Preemergence, 1000 g ai/ha, visual rating on 0 to 100 scale (0 no effect, 100 complete control), approx. 10 days

O=C1NCC(c2ccc(C(F)(F)F)c(Cl)c2)C1C(=O)Nc1ccccc1F (racemic) [Compound 249]
90: Plant response rating, Foxtail, Giant (giant foxtail; [6]) | Plant response rating, Crabgrass, Large (crabgrass, large; [6])
0: Plant response rating, Corn (corn; [3]) | Plant response rating, Corn (corn; [4]) | Plant response rating, Corn (corn; [5]) | Plant response rating, Corn (corn; [6]) | Plant response rating, Morningglory (morningglory; [3]) | Plant response rating, Morningglory (morningglory; [4]) | Plant response rating, Morningglory (morningglory; [5]) | Plant response rating, Morningglory (morningglory; [6]) | Plant response rating, Pigweed (pigweed; [3]) | Plant response rating, Pigweed (pigweed; [4]) | Plant response rating, Pigweed (pigweed; [5]) | Plant response rating, Pigweed (pigweed; [6]) | Plant response rating, Velvetleaf (velvetleaf; [3]) | Plant response rating, Velvetleaf (velvetleaf; [4]) | Plant response rating, Velvetleaf (velvetleaf; [5]) | Plant response rating, Velvetleaf (velvetleaf; [6]) | Plant response rating, Wheat (wheat; [3]) | Plant response rating, Wheat (wheat; [4]) | Plant response rating, Wheat (wheat; [5]) | Plant response rating, Wheat (wheat; [6]) | Plant response rating, Crabgrass, Large (crabgrass, large; [3])
15: Plant response rating, Rice (rice; 1000 g ai/ha)
50: Plant response rating, Foxtail, Giant (giant foxtail; [5]) | Plant response rating, Barnyardgrass (barnyardgrass [2]; [4]) | Plant response rating, Barnyardgrass (barnyardgrass [2]; [5])
80: Plant response rating, Barnyardgrass (barnyardgrass [2]; [6]) | Plant response rating, Crabgrass, Large (crabgrass, large; [5])
20: Plant response rating, Foxtail, Giant (giant foxtail; [3])
40: Plant response rating, Sedge, Umbrella (sedge, umbrella; 1000 g ai/ha) | Plant response rating, Foxtail, Giant (giant foxtail; [4]) | Plant response rating, Crabgrass, Large (crabgrass, large; [4])
30: Plant response rating, Barnyardgrass (barnyardgrass [2]; [3])
85: Plant response rating, Ducksalad (ducksalad; 1000 g ai/ha)
55: Plant response rating, Barnyardgrass (barnyardgrass [1]; 1000 g ai/ha)

Cn1ccc(NC(=O)C2C(=O)NCC2c2ccc(F)c(F)c2)n1 (stereo not drawn) [Compound 31]
0: Plant response rating, Sedge, Umbrella (sedge, umbrella; 250 g ai/ha) | Plant response rating, Rice (rice; 250 g ai/ha) | Plant response rating, Morningglory (morningglory; [7]) | Plant response rating, Pigweed (pigweed; [7]) | Plant response rating, Pigweed (pigweed; [8]) | Plant response rating, Velvetleaf (velvetleaf; [7]) | Plant response rating, Velvetleaf (velvetleaf; [8]) | Plant response rating, Wheat (wheat; [7]) | Plant response rating, Barnyardgrass (barnyardgrass [1]; 250 g ai/ha) | Plant response rating, Ducksalad (ducksalad; 250 g ai/ha)
60: Plant response rating, Barnyardgrass (barnyardgrass [2]; [7])
50: Plant response rating, Wheat (wheat; [8]) | Plant response rating, Barnyardgrass (barnyardgrass [2]; [8])
80: Plant response rating, Foxtail, Giant (giant foxtail; [8]) | Plant response rating, Crabgrass, Large (crabgrass, large; [8])
30: Plant response rating, Corn (corn; [7])
20: Plant response rating, Corn (corn; [8]) | Plant response rating, Foxtail, Giant (giant foxtail; [7]) | Plant response rating, Crabgrass, Large (crabgrass, large; [7])

O=C1NCC(c2ccc(C(F)(F)F)cc2F)C1C(=O)Nc1ccccc1F (racemic) [Compound 259]
20: Plant response rating, Barnyardgrass (barnyardgrass [1]; 1000 g ai/ha)
70: Plant response rating, Foxtail, Giant (giant foxtail; [4]) | Plant response rating, Barnyardgrass (barnyardgrass [2]; [4])
0: Plant response rating, Corn (corn; [3]) | Plant response rating, Corn (corn; [4]) | Plant response rating, Corn (corn; [5]) | Plant response rating, Corn (corn; [6]) | Plant response rating, Morningglory (morningglory; [3]) | Plant response rating, Morningglory (morningglory; [4]) | Plant response rating, Morningglory (morningglory; [5]) | Plant response rating, Morningglory (morningglory; [6]) | Plant response rating, Pigweed (pigweed; [3]) | Plant response rating, Pigweed (pigweed; [4]) | Plant response rating, Pigweed (pigweed; [5]) | Plant response rating, Pigweed (pigweed; [6]) | Plant response rating, Velvetleaf (velvetleaf; [3]) | Plant response rating, Velvetleaf (velvetleaf; [4]) | Plant response rating, Velvetleaf (velvetleaf; [5]) | Plant response rating, Velvetleaf (velvetleaf; [6]) | Plant response rating, Wheat (wheat; [3]) | Plant response rating, Wheat (wheat; [4]) | Plant response rating, Wheat (wheat; [5]) | Plant response rating, Wheat (wheat; [6])
90: Plant response rating, Foxtail, Giant (giant foxtail; [6]) | Plant response rating, Crabgrass, Large (crabgrass, large; [4]) | Plant response rating, Crabgrass, Large (crabgrass, large; [6]) | Plant response rating, Ducksalad (ducksalad; 1000 g ai/ha)
80: Plant response rating, Barnyardgrass (barnyardgrass [2]; [6]) | Plant response rating, Crabgrass, Large (crabgrass, large; [3])
60: Plant response rating, Foxtail, Giant (giant foxtail; [5])
10: Plant response rating, Sedge, Umbrella (sedge, umbrella; 1000 g ai/ha) | Plant response rating, Rice (rice; 1000 g ai/ha) | Plant response rating, Barnyardgrass (barnyardgrass [2]; [5])
50: Plant response rating, Foxtail, Giant (giant foxtail; [3]) | Plant response rating, Barnyardgrass (barnyardgrass [2]; [3])

Reference: US10294202B2, “Pyrrolidinones as herbicides” (FMC Corporation, priority 2013, dated 2019)
